# Assay results: publication PMC6921279 (Frontiers in Endocrinology, 2019)
# Legend:
# [1] = tested on: CRF1R-mediated ERK1/2 phosphorylation; assay: Modulation of CRF-stimulated ERK1/2 phosphorylation in COS-7 cells expressing HA-CRF1R; format: cell-based; settings: wortmannin (0–100 nM), 30 min pretreatment; 100 nM CRF, 5 min
# Outline: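 Lysates were immunoblotted for phospho-ERK1/2 Thr202/Tyr204. Phosphorylation was quantified by densitometry as the mean of three to five independent experiments.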
# [2] = tested on: EGF-stimulated ERK1/2 phosphorylation; assay: Modulation of EGF-stimulated ERK1/2 phosphorylation in COS-7 cells; format: cell-based; settings: wortmannin 100 nM, 30 min pretreatment; 10 ng/ml EGF, 10 min
# Experimental: COS-7 cells (from the American Type Culture Collection) were cultured at 37°C in a humidified atmosphere of 95% air, 5% CO2, in DMEM supplemented with 10% FBS, 100 μg/ml streptomycin, and 100 units/ml penicillin (COS-7 growth medium). Transient transfections were performed using LipofectAMINE (Life Technologies: Gaithersburg, MD) as described previously ([27]). Cells were seeded at 8 × 10^5 cells/10-cm dish in COS-7 medium and cultured for 3 days before transfection. COS-7 cells were transfected in 5 ml/dish OptiMEM containing 10 μg/ml LipofectAMINE with empty vector, pcDNA3 encoding the HA-CRF1R or the HA-CRF1R-Δ386 mutant. […] After replacing the transfection medium with fresh growth medium, transfected COS-7 cells were cultured for 1 day. […]
# The protocols for measuring total and phosphorylated ERK1/2, c-Src, PYK2, Akt, and EGFR have been previously published ([28], [29]). […] The labeled bands were quantified using the Quantity One 4.6.3 software program (Bio-Rad).
# Figure 3 Involvement of EGFR transactivation in CRF-stimulated ERK1/2 phosphorylation. […] Total cell lysates were separated by SDS-PAGE and analyzed by immunoblotting with anti-p-ERK1/2 Thr^202/Tyr^204 (A–D) or anti-p-EGFR Tyr^1068 (E), as described in Materials and Methods. ERK1/2 and EGFR phosphorylation were quantitated by densitometry, and mean values were plotted from three to five independent experiments. […]
smiles,measurement,setting,value
COC[C@H]1OC(=O)c2coc3c2[C@@]1(C)C1=C(C3=O)[C@@H]2CCC(=O)[C@@]2(C)C[C@H]1OC(C)=O [wortmannin],effect on CRF-stimulated ERK1/2 phosphorylation,[1],abolished CRF-stimulated ERK1/2 phosphorylation
same,effect on EGF-stimulated ERK1/2 phosphorylation,[2],unable to inhibit the effect of EGF
